Literature values in patent publication US10183022B2, “Pharmaceutical composition for treating ulcerative colitis” (EA Pharma Co., Ltd., priority 2014, dated 2019).

System: administered patients
Settings: among the administered patients, intravenous infusion; cited from earlier work

Infliximab: anti-TNFα antibody, given by intravenous infusion
Patients showing the loss of the response: ≤ 70%
